According to US11945822B2, “Pyrazolo-triazine and/or pyrazolo-pxrimidine derivatives as selective inhibitor of cyclin dependent kinase” (QURIENT CO., LTD., priority 2018, dated 2024):
pIC50: −log10 of the molar value.

Assays:
H460 = experiment: Cellular H460 viability assay (CellTiter-Glo, 72 hours); format: cell-based; details: Homo sapiens, NCI-H460
Summary of the method: (§1)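 72 h treatment, 37 °C, 5% CO2; DMSO ctrl, final <0.1%; CellTiter-Glo luminescence; n=2.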

MV4-11 = experiment: Cellular MV4-11 viability assay (CellTiter-Glo, 72 hours); format: cell-based; details: Homo sapiens
Summary of the method: as §1

RPMI-8226 = experiment: Cellular RPMI-8226 viability assay (CellTiter-Glo, 72 hours); format: cell-based; details: Homo sapiens
Summary of the method: as §1

MOLT-4 = experiment: Cellular MOLT-4 viability assay (CellTiter-Glo, 72 hours); format: cell-based; details: Homo sapiens, MOLT4 viability assay
Summary of the method: as §1

CDK1/Cyclin B = target: T1, CDK1/Cyclin B (Homo sapiens, UniProt P06493); experiment: Enzymatic assay for CDK1 (FRET based LANCE Ultra kinase assay); format: biochemical; details: read-out: CDK1 enzymatic activity (IC50 range)
T1 construct: purchased Invitrogen PR4768C
T1 sequence (P06493 whole entry): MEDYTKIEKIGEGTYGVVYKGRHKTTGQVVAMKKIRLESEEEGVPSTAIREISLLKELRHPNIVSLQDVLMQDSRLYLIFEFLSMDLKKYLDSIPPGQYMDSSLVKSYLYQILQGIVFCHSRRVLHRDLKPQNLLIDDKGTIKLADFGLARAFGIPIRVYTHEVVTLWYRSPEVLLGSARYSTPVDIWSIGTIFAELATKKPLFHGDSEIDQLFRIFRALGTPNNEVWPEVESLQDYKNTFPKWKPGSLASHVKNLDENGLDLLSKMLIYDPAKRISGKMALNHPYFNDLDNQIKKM
T1 sequence (P14635 whole entry partner): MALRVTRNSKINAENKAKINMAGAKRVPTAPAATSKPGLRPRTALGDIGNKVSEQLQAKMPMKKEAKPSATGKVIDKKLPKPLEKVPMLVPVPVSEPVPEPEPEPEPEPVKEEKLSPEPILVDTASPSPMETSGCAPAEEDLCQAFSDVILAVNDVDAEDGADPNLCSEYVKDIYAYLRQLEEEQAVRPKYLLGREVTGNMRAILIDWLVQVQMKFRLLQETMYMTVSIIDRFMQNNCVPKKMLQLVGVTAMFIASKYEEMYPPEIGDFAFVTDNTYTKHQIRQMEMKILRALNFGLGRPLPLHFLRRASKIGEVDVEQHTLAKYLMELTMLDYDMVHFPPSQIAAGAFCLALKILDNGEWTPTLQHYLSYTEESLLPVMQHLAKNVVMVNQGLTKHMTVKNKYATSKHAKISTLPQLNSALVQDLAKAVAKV
Summary of the method: (§2)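 LANCE Ultra TR-FRET: ULight-MBP peptide (68 nM) with ATP at Km, […], 60 min at 23° C. EDTA plus Eu-anti-phospho-MBP added, another 60 min, then 665/615 nm emission read. Compounds tested as 8-dose 4-fold DMSO dilutions.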

CDK5/p25 = target: T2, CDK5/p25 (Homo sapiens, UniProt Q00535); experiment: Enzymatic assay for CDK5 (FRET based LANCE Ultra kinase assay); format: biochemical; details: read-out: CDK5 enzymatic activity (IC50 range)
T2 construct: purchased Invitrogen PR8543B
T2 sequence (Q00535 whole entry): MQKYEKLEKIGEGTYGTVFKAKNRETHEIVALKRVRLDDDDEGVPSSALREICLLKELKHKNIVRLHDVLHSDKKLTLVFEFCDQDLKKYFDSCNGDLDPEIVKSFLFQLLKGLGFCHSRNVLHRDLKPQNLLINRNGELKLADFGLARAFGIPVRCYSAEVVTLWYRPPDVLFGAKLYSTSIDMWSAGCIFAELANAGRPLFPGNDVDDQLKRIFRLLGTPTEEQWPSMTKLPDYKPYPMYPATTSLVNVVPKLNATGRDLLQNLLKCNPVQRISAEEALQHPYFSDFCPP
T2 sequence (Q15078 99-307 partner limits assumed): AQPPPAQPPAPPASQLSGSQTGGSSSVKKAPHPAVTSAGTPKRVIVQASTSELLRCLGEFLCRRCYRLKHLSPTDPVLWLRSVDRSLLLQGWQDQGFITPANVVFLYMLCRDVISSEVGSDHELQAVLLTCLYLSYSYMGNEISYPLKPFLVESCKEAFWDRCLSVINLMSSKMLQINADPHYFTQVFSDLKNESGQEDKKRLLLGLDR
Summary of the method: as §2

CDK7/Cyclin H/MNAT1 = target: T3, CDK7/Cyclin H/MNAT1 (Homo sapiens, UniProt P50613); experiment: Enzymatic assay for CDK7 (FRET based LANCE Ultra kinase assay); format: biochemical; details: for pIC50: read-out: CDK7 enzymatic activity (IC50 range)
T3 construct: purchased Invitrogen PR6749B
T3 sequence (P50613 whole entry): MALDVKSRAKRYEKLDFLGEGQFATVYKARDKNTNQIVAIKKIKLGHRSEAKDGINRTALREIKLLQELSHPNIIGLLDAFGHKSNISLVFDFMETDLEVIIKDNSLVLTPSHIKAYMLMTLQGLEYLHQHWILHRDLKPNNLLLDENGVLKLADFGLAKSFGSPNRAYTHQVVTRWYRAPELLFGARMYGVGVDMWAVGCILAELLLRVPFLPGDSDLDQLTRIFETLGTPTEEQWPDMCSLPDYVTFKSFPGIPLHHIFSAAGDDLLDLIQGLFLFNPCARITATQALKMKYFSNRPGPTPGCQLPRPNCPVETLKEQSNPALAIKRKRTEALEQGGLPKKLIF
T3 sequence (P51946 whole entry partner): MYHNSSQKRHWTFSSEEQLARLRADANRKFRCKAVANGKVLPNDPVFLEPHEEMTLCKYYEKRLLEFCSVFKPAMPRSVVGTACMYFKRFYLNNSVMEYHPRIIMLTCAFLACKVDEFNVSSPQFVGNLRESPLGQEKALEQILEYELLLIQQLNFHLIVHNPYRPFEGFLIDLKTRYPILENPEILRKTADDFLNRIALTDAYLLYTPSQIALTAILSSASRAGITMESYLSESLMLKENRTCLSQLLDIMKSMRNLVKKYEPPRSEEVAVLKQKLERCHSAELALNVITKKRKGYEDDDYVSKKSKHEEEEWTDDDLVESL
T3 sequence (P51948 whole entry partner): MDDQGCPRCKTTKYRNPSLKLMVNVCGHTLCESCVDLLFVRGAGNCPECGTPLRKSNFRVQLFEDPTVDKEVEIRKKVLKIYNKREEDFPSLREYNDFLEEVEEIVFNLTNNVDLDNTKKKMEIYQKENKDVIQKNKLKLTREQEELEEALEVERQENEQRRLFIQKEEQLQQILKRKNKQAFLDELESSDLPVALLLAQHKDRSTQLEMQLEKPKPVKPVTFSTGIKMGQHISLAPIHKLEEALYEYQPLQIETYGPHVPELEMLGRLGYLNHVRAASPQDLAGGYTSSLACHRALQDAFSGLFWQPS
Summary of the method: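 LANCE Ultra TR-FRET kinase assay using a ULight-labeled peptide substrate and a Eu-labeled anti-phospho antibody, with ATP at its Km. Purified CDK/cyclin complex was added to compound after brief centrifugation.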

CDK2/Cyclin A = target: T4, CDK2/Cyclin A (Homo sapiens, UniProt P24941); experiment: Enzymatic assay for CDK2 (FRET based LANCE Ultra kinase assay); format: biochemical; details: read-out: CDK2 enzymatic activity (IC50 range)
T4 construct: purchased Invitrogen PV6290
Summary of the method: as §2

| SMILES | pIC50 (H460) | pIC50 (MV4-11) | pIC50 (RPMI-8226) | pIC50 (MOLT-4) | pIC50 (CDK1/Cyclin B) | pIC50 (CDK5/p25) | CDK1/CDK7: Selectivity of CDK7 inhibition over CDK1 inhibition (CDK7/Cyclin H/MNAT1) | CDK2/CDK7: Selectivity of CDK7 inhibition over CDK2 inhibition (CDK7/Cyclin H/MNAT1) | CDK5/CDK7: Selectivity of CDK7 inhibition over CDK5 inhibition (CDK7/Cyclin H/MNAT1) | pIC50 (CDK7/Cyclin H/MNAT1) | pIC50 (CDK2/Cyclin A) |
| --- | --- | --- | --- | --- | --- | --- | --- | --- | --- | --- | --- |
| CC(C)c1cnn2c(NCc3ccccc3-c3cc4cccc(F)c4[nH]3)nc(N3CCC(N)CC3)nc12 [Compound 113] | > 6.00 | > 6.00 | > 6.00 | > 6.00 | – | – | – | – | – | – | – |
| CC(C)c1cnn2c(NCc3ccccc3-c3nc4ccccc4n3C)nc(N3CCC(N)CC3)nc12 [Compound 96] | > 6.00 | – | > 6.00 | 5.00 to 6.00 | < 6.00 | 6.00 to 7.00 | A (A=greater than 200 fold) | A (A=greater than 200 fold) | B (B=less than 200 fold, but greater than 20 fold) | > 7.00 | < 6.00 |
| CC(C)c1cnn2c(NCc3cccc4c3N(C)C(=O)CC4)nc(N3CCC(N)CC3)nc12 [Compound 69] | > 6.00 | – | > 6.00 | 5.00 to 6.00 | 6.00 to 7.00 | > 7.00 | B (B=less than 200 fold, but greater than 20 fold) | B (B=less than 200 fold, but greater than 20 fold) | C (C=less than 20 fold) | > 7.00 | > 7.00 |
| CC(C)c1cnn2c(NCc3cccc4ccc(C5CC5)nc34)nc(N3CCC(N)CC3)nc12 [Compound 71] | 5.00 to 6.00 | 5.00 to 6.00 | 5.00 to 6.00 | 5.00 to 6.00 | < 6.00 | 6.00 to 7.00 | B (B=less than 200 fold, but greater than 20 fold) | B (B=less than 200 fold, but greater than 20 fold) | B (B=less than 200 fold, but greater than 20 fold) | > 7.00 | < 6.00 |
| CC(C)c1cnn2c(NCc3ccccc3N3CCCC3)nc(N3CCC(N)CC3)nc12 [Compound 54] | > 6.00 | – | 5.00 to 6.00 | 5.00 to 6.00 | < 6.00 | 6.00 to 7.00 | B (B=less than 200 fold, but greater than 20 fold) | B (B=less than 200 fold, but greater than 20 fold) | C (C=less than 20 fold) | > 7.00 | 6.00 to 7.00 |
| CC(C)c1cnn2c(NCc3ccccc3N(C)c3ccccc3)nc(N3CCC(N)CC3)nc12 [Compound 63] | > 6.00 | – | 5.00 to 6.00 | < 5.00 | 6.00 to 7.00 | 6.00 to 7.00 | B (B=less than 200 fold, but greater than 20 fold) | B (B=less than 200 fold, but greater than 20 fold) | B (B=less than 200 fold, but greater than 20 fold) | > 7.00 | 6.00 to 7.00 |
| CC(C)c1cnn2c(NCc3ccccc3-n3cc4cc(Br)ccc4n3)nc(N3CCC(N)CC3)nc12 [Compound 100] | > 6.00 | – | 5.00 to 6.00 | 5.00 to 6.00 | – | – | – | – | – | – | – |
| CC(C)c1cnn2c(NCc3ccccc3N3CCc4ccccc43)nc(N3CCC(N)CC3)nc12 [Compound 76] | > 6.00 | – | > 6.00 | 5.00 to 6.00 | < 6.00 | 6.00 to 7.00 | A (A=greater than 200 fold) | B (B=less than 200 fold, but greater than 20 fold) | B (B=less than 200 fold, but greater than 20 fold) | > 7.00 | < 6.00 |
| CC(C)c1cnn2c(NCc3ccccc3Oc3ccccc3)nc(N3CCC(N)CC3)nc12 [Compound 56] | > 6.00 | – | 5.00 to 6.00 | 5.00 to 6.00 | < 6.00 | 6.00 to 7.00 | B (B=less than 200 fold, but greater than 20 fold) | B (B=less than 200 fold, but greater than 20 fold) | C (C=less than 20 fold) | > 7.00 | < 6.00 |
| CC(C)c1cnn2c(NCc3ccccc3Nc3ccccc3)nc(N3CCC(N)CC3)nc12 [Compound 61] | > 6.00 | – | 5.00 to 6.00 | 5.00 to 6.00 | < 6.00 | 6.00 to 7.00 | B (B=less than 200 fold, but greater than 20 fold) | B (B=less than 200 fold, but greater than 20 fold) | C (C=less than 20 fold) | > 7.00 | 6.00 to 7.00 |
| CC(C)c1cnn2c(NCc3ccccc3NC(=O)c3ccccc3)nc(N3CCC(N)CC3)nc12 [Compound 87] | – | – | > 6.00 | 5.00 to 6.00 | < 6.00 | 6.00 to 7.00 | A (A=greater than 200 fold) | A (A=greater than 200 fold) | B (B=less than 200 fold, but greater than 20 fold) | > 7.00 | < 6.00 |
| CC(C)c1cnn2c(NCc3ccccc3-c3cccs3)nc(N3CCC(N)CC3)nc12 [Compound 44] | > 6.00 | – | > 6.00 | 5.00 to 6.00 | 6.00 to 7.00 | > 7.00 | B (B=less than 200 fold, but greater than 20 fold) | B (B=less than 200 fold, but greater than 20 fold) | B (B=less than 200 fold, but greater than 20 fold) | > 7.00 | 6.00 to 7.00 |
| CC(C)c1cnn2c(NCc3ccccc3-n3cc4cc(-c5ccccc5)ccc4n3)nc(N3CCC(N)CC3)nc12 [Compound 101] | 5.00 to 6.00 | – | 5.00 to 6.00 | 5.00 to 6.00 | – | – | – | – | – | – | – |
| CC(C)c1cnn2c(NCc3cccc4ccc(-n5cccn5)nc34)nc(N3CCC(N)CC3)nc12 [Compound 59] | 5.00 to 6.00 | – | 5.00 to 6.00 | 5.00 to 6.00 | – | – | – | – | – | – | – |
| CC(C)c1cnn2c(NCc3ccccc3-c3cc4ccccc4[nH]3)nc(OC3CCN(C)CC3)nc12 [Compound 115] | – | > 6.00 | 5.00 to 6.00 | 5.00 to 6.00 | < 6.00 | 6.00 to 7.00 | A (A=greater than 200 fold) | B (B=less than 200 fold, but greater than 20 fold) | B (B=less than 200 fold, but greater than 20 fold) | > 7.00 | 6.00 to 7.00 |
| CC(C)c1cnn2c(NCc3ccccc3-c3nccc4cc(NC(=O)CCCN(C)C)ccc34)nc(N3CCC(N)CC3)nc12 [Compound 92] | – | > 6.00 | 5.00 to 6.00 | < 5.00 | < 6.00 | < 6.00 | A (A=greater than 200 fold) | A (A=greater than 200 fold) | A (A=greater than 200 fold) | > 7.00 | < 6.00 |
